Measured values taken from US7105558B2, “Gastrin and cholecystokinin receptor lignads (iv)” (The James Black Foundation Limited, priority 2000, dated 2006).

Biological target: T1, gastrin (CCK2) receptors (Rattus norvegicus, UniProt P30553)
T1 construct: The stomach was excised and flushed with ca. 1 ml of unbuffered physiological saline solution; from tissue; host or cells: isolated whole stomach of immature rats (33-50 g, ca. 21 days old)
T1 sequence (P30553 1-452): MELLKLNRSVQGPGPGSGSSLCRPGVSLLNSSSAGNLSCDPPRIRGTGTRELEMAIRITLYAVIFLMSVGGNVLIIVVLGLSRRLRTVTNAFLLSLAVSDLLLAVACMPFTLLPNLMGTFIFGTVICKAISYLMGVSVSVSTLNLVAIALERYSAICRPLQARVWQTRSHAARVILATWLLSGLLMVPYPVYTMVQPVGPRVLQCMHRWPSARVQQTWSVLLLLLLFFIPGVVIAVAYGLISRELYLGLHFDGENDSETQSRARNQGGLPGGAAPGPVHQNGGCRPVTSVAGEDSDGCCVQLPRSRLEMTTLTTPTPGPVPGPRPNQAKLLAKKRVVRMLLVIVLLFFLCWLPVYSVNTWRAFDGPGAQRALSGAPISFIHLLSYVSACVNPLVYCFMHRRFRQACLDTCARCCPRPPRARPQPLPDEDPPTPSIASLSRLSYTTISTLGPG
Assay: immature rat stomach assay for gastrin (CCK2) antagonist activity (pentagastrin-stimulated acid secretion)
Conditions: isolated immature rat stomach, antagonism of pentagastrin dose-response curves, 60 min incubation, tested as N-methyl D-glucamine salts; for Kb: read-out: Rat stomach pKB (converted)
Experimental: The compounds of the examples were tested for gastrin (CCK2) antagonist activity in an immature rat stomach assay. The procedure was as follows:
The oesophagus of immature rats (33-50 g, ca. 21 days old) was ligated at the level of the cardiac sphincter and the duodenal sphincter was cannulated. The stomach was excised and flushed with ca. 1 ml of unbuffered physiological saline solution. The fundus was punctured and cannulated. A further 4-5 ml of unbuffered solution was flushed through the stomach to ensure the preparation was not leaking. The stomach was lowered into a jacketed organ bath containing 40 ml of buffered solution containing 3×10^−8 M 5-methylfurmethide, maintained at 37° and gassed vigorously with 95% O2/5% CO2. The stomach was continuously perfused at a rate of 1 ml min^−1 with unbuffered solution gassed with 100% O2 with the perfusate passing over an internally referenced pH-electrode fixed 12 cm above the stomach.
After 120 min of stabilisation the drugs were added directly to the serosal solution in the organ bath and after a further 60 min cumulative pentagastrin dose-response curves were started. Changes in acid secretion were monitored and the curves analysed according to Black et al, Br. J. Pharmacol., 1985, 86, 581.

SMILES	Kb	Rat stomach pKB
O=C(O)c1cccc(NC(=O)c2nn(C3CCCCC3)nc2COC23CC4CC(CC(C4)C2)C3)c1 [Example 2, 3-[[5-(Adamantan-1-yloxymethyl)-2-cyclohexyl-2H-[1,2,3]triazole-4-carbonyl]-amino]-benzoic acid]	47.9 nM	–
O=C(O)c1cccc(NC(=O)c2nn[nH]c2COC23CC4CC(CC(C4)C2)C3)c1 [Example 24, 3-[[5-(Adamantan-1-yloxymethyl)-1/2/3H-[1,2,3]triazole-4-carbonyl]-amino]-benzoic acid]	–	5.65 ± 0.33
CCc1ccccc1-n1nc(COC23CC4CC(CC(C4)C2)C3)c(C(=O)Nc2cccc(C(=O)O)c2)n1 [Example 8, 3-[[5-(Adamantan-1-yloxymethyl)-2-(2-ethyl-phenyl)-2H-[1,2,3]triazole-4-carbonyl]-amino]-benzoic acid]	24 nM	–
O=C(O)c1cccc(NC(=O)c2nn(C3CC4CCC3C4)nc2COC23CC4CC(CC(C4)C2)C3)c1 (stereo not drawn) [Example 11, Endo-3-[[5-(Adamantan-1-yloxymethyl)-2-bicyclo[2.2.1]hept-2-yl-2H-[1,2,3]triazole-4-carbonyl]-amino]-benzoic acid]	–	8.37 ± 0.22
CC(C)(C)n1nc(COC23CC4CC(CC(C4)C2)C3)c(C(=O)Nc2cccc(C(=O)O)c2)n1 [Example 9, 3-[[5-(Adamantan-1-yloxymethyl)-2-tert-butyl-2H-[1,2,3]triazole-4-carbonyl]-amino]-benzoic acid]	631 nM	–
Nc1ccccc1-n1nc(COC23CC4CC(CC(C4)C2)C3)c(C(=O)Nc2cccc(C(=O)O)c2)n1 [Example 27]	–	6.67 ± 0.17
O=C(O)c1cccc(NC(=O)c2nn(-c3ccccc3Br)nc2COC23CC4CC(CC(C4)C2)C3)c1 [Example 13, 3-[[5-(Adamantan-1-yloxymethyl)-2-(2-bromo-phenyl)-2H-[1,2,3]triazole-4-carbonyl]-amino]-benzoic acid]	95.5 nM	–
O=C(O)c1cccc(NC(=O)c2nn(-c3ccccc3F)nc2COC23CC4CC(CC(C4)C2)C3)c1 [Example 12, 3-[[5-(Adamantan-1-yloxymethyl)-2-(2-fluoro-phenyl)-2H-[1,2,3]triazole-4-carbonyl]-amino]-benzoic acid]	174 nM	–
O=C(O)c1cccc(NC(=O)c2nn(-c3ccccc3C(F)(F)F)nc2COC23CC4CC(CC(C4)C2)C3)c1 [Example 7, 3-[[5-(Adamantan-1-yloxymethyl)-2-(2-trifluoromethyl-phenyl)-2H-[1,2,3]triazole-4-carbonyl]-amino]-benzoic acid]	67.6 nM	–
O=C(O)c1cccc(NC(=O)c2nn(-c3c(Cl)cc(Cl)cc3Cl)nc2COC23CC4CC(CC(C4)C2)C3)c1 [Example 4, 3-[[5-(Adamantan-1-yloxymethyl)-2-(2,4,6-trichlorophenyl)-2H-[1,2,3]triazole-4-carbonyl]-amino]-benzoic acid]	191 nM	–
O=C(O)c1cccc(NC(=O)c2nn(C3C4CC5CC(C4)CC3C5)nc2COC23CC4CC(CC(C4)C2)C3)c1 (centres unmarked) [Example 16, 3-[[2-Adamantan-2-yl-5-(Adamantan-1-yloxymethyl)-2H-[1,2,3]triazole-4-carbonyl]-amino]-benzoic acid.]	–	6.82 ± 0.17
Cc1ccccc1-n1nc(COC23CC4CC(CC(C4)C2)C3)c(C(=O)Nc2cccc(C(=O)O)c2)n1 [Example 1, 3-[[5-(Adamantan-1-yloxymethyl)-2-(2-methyl-phenyl)-2H-[1,2,3]triazole-4-carbonyl]-amino]-benzoic acid]	43.7 nM	–
O=C(O)c1cccc(NC(=O)c2nn(-c3ccccc3Cl)nc2COC23CC4CC(CC(C4)C2)C3)c1 [Example 5, 3-[[5-(Adamantan-1-yloxymethyl)-2-(2-chloro-phenyl)-2H-[1,2,3]triazole-4-carbonyl]-amino]-benzoic acid]	30.9 nM	–
COc1ccccc1-n1nc(COC23CC4CC(CC(C4)C2)C3)c(C(=O)Nc2cccc(C(=O)O)c2)n1 [Example 10, 3-[[5-(Adamantan-1-yloxymethyl)-2-(2-methoxy-phenyl)-2H-[1,2,3]triazole-4-carbonyl]amino]-benzoic acid]	41.7 nM	–
O=C(O)c1cccc(NC(=O)c2nn(-c3c(Cl)cccc3Cl)nc2COC23CC4CC(CC(C4)C2)C3)c1 [Example 3, 3-[[5-(Adamantan-1-yloxymethyl)-2-(2,6-dichlorophenyl)-2H-[1,2,3]triazole-4-carbonyl]-amino]-benzoic acid]	13.2 nM	–

Second part, led by results:

Kb	SMILES	Rat stomach pKB
2820 nM	O=C(O)Cc1cccc(NC(=O)c2nn(-c3c(Cl)cccc3Cl)nc2COC23CC4CC(CC(C4)C2)C3)c1 [Example 31, (3-{[5-(Adamantan-1-yloxymethyl)-2-(2,6-dichloro-phenyl)-2H-[1,2,3]triazole-4-carbonyl]-amino}-phenyl)acetic acid]	–
1230 nM	O=C(O)c1cccc(NC(=O)c2nn(-c3c(Cl)cccc3Cl)nc2COc2ccccc2)c1 [Example 28, 3-{[2-(2,6-Dichloro-phenyl)-5-phenoxymethyl-2H-[1,2,3]triazole-4-carbonyl]-amino}-benzoic acid]	–
3720 nM	O=C(O)c1cccc(NC(=O)c2c(COC34CC5CC(CC(C5)C3)C4)nnn2C2CCCCCC2)c1 [Example 32, 3-{[5-(Adamantan-1-yloxymethyl)-3-cycloheptyl-3H-[1,2,3]triazole-4-carbonyl]-amino}-benzoic acid]	–
97.7 nM	O=C(O)c1cccc(NC(=O)c2nn(-c3c(Cl)cccc3Cl)nc2COC2CCCCCC2)c1 [Example 29, 3-{[5-Cycloheptyloxymethyl-2-(2,6-dichloro-phenyl)-2H-[1,2,3]triazole-4-carbonyl]-amino}-benzoic acid]	–
282 nM	Cc1ccc(C)c(-n2nc(COC34CC5CC(CC(C5)C3)C4)c(C(=O)Nc3cccc(C(=O)O)c3)n2)c1 [Example 22, 3-[[5-(Adamantan-1-yloxymethyl)-2-(2,5-dimethyl-phenyl)-2H-[1,2,3]triazole-4-carbonyl]-amino]-benzoic acid]	–
380 nM	O=C(O)c1cccc(NC(=O)c2nn(-c3ccccc3[N+](=O)[O-])nc2COC23CC4CC(CC(C4)C2)C3)c1 [Example 26, 3-[[5-(Adamantan-1-yloxymethyl)-2-(2-nitro-phenyl)-2H-[1,2,3]triazole-4-carbonyl]-amino]-benzoic acid]	–
151 nM	O=C(O)c1cccc(NC(=O)c2nn(-c3cc(Cl)ccc3Cl)nc2COC23CC4CC(CC(C4)C2)C3)c1 [Example 23, 3-[[5-(Adamantan-1-yloxymethyl)-2-(2,5-dichloro-phenyl)-2H-[1,2,3]triazole-4-carbonyl]-amino]-benzoic acid]	–
263 nM	CC(C)c1ccccc1-n1nc(COC23CC4CC(CC(C4)C2)C3)c(C(=O)Nc2cccc(C(=O)O)c2)n1 [Example 17, 3-[[5-(Adamantan-1-yloxymethyl)-2-(2-isopropyl-phenyl)-2H-[1,2,3]triazole-4-carbonyl]-amino]-benzoic acid]	–
74.1 nM	Cc1cccc(-n2nc(COC34CC5CC(CC(C5)C3)C4)c(C(=O)Nc3cccc(C(=O)O)c3)n2)c1C [Example 19, 3-[[5-(Adamantan-1-yloxymethyl)-2-(2,3-dimethyl-phenyl)-2H-[1,2,3]triazole-4-carbonyl]-amino]-benzoic acid]	–
275 nM	O=C(O)c1cccc(NC(=O)c2nn(-c3c(Cl)cccc3Cl)nc2COC2CCCCC2)c1 [Example 30, 3-{[5-Cyclohexyloxymethyl-2-(2,6-dichloro-phenyl)-2H-[1,2,3]triazole-4-carbonyl]-amino}-benzoic acid]	–
316 nM	Cc1ccc(-n2nc(COC34CC5CC(CC(C5)C3)C4)c(C(=O)Nc3cccc(C(=O)O)c3)n2)c(C)c1 [Example 25, 3-[[5-(Adamantan-1-yloxymethyl)-2-(2,4-dimethyl-phenyl)-2H-[1,2,3]triazole-4-carbonyl]-amino]-benzoic acid]	–
240 nM	O=C(O)c1cccc(NC(=O)c2nn(-c3ccccc3-c3ccccc3)nc2COC23CC4CC(CC(C4)C2)C3)c1 [Example 21, 3-[[5-(Adamantan-1-yloxymethyl)-2-(biphenyl-2-yl)-2H-[1,2,3]triazole-4-carbonyl]-amino]-benzoic acid]	–
13.5 nM	O=C(O)c1cccc(NC(=O)c2nn(C3CCCCCC3)nc2COC23CC4CC(CC(C4)C2)C3)c1 [Example 15, 3-[[5-(Adamantan-1-yloxymethyl)-2-cycloheptyl-2H-[1,2,3]triazole-4-carbonyl]-amino]-benzoic acid]	–
1510 nM	O=C(O)c1cccc(NC(=O)c2nn(-c3cccc4ccccc34)nc2COC23CC4CC(CC(C4)C2)C3)c1 [Example 18, 3-[[5-(Adamantan-1-yloxymethyl)-2-naphthalen-1-yl-2H-[1,2,3]triazole-4-carbonyl]-amino]-benzoic acid]	–
